# Measured values published in patent US20030175438A1, “Treatments of solid substrates to enhance durability of treatments placed thereon” (priority 2002, published 2003).
# Test: Bromphenol Blue (BPB) Extraction Method, spectrophotometric at 595 nm (modified CTM 0824), on treated fabric
# Type: physicochemical
# Conditions: for Strike Rate - % BPB Extraction: No Boil, Table XIII
# Experimental: Sample Preparation: Fabric samples were obtained from the JoAnn fabric chain and were commercial fabrics. The fabrics were cut into rectangular size and were about 1½ inches by 2 inches, and were treated in 0.15 weight percent active antimicrobial agent placed in an Erlenmeyer flask. The agent used in this example was N, N-dimethyl-N-Octadecyl-3-(trimethoxysilyl)propanaminium chloride. The treatment solutions were allowed to hydrolyze from the trimethoxysilyl form to the trisilanol form before adding the fabrics. This takes only a few minutes to essentially complete. The solution temperature was raised to 100° C. before treating the fabrics for 60 seconds by immersion in the solutions with moderate agitation of the solution within the flask. After removing the samples from the hot solution, they were nip rolled to remove excess liquid. Wet Weight Pickup (WWP) was targeted to 100%. The samples were air dried before testing unless otherwise noted. The Extraction, stated in percent, was measured using the Bromphenol Blue Extraction Method using spectrophotometric determination. This method is CTM 0824, which has been modified for use herein in the following manner. The chlorinated solvent has been eliminated and the wavelength is 595 nm. Further, Dow Corning® A521 has been substituted for the Triton.RTM. X-100 wetting agent of the test. What is measured is the diminution of the BPB Absorbance at 595 nm relative to the BPB standard solution and it is reported in percent Extraction. Antimicrobial efficacy was determined using the CTM-0923 Dynamic Shake Flask Test unless otherwise stated.
# The antimicrobial agent used in this example was the same as that used in example 1. The samples were handled the same as in example 1 with the exception of the following. Samples were air and/or oven dried before testing. The % Extraction was measured using the BPB Extraction Method using spectrophotometric determination at 595 nm. If determined, antimicrobial efficacy was determined using the CTM-0923 Dynamic Shake Flask Test. Co-treatments the addition of the fabric to a 0.20 molar solution of the anion plus 0.15 WPA antimicrobial agent. The co-treatment is carried out at 100° C., and the fabric was moderately agitated for 60 seconds. The antimicrobial treatment is the addition of the fabric to a solution of 0.15 WPA antimicrobial agent held at 100° C. with moderate agitation for 60 seconds. Excess solution is removed from the samples, and the WWP is determined by weighing. Boiling was done with 200 milliliters of distilled water in a glass container in a microwave oven. Power setting was 30%, and the solution was gently boiled for 30 minutes. Sample size was nominally 1 gram and fresh water was used for each boiling study. The testing results can be found on Table XIII to XIV, respectively, infra. To differentiate between the application rate of the antimicrobial on the fabric, 25% of the normal sample size, or 0.25 grams of fabric was used to obtain the BPB Extraction values that ranged between 5 and 99%. This yielded values of percent BPB extraction that were in the linear range of the test procedure. Using larger samples creates an inaccurate test.
structure (smiles),measurement,setting,value
"CCCCCCCCCCCCCCCCCC[N+](C)(C)CCC[Si](OC)(OC)OC.[Cl-] [AMT, N, N-dimethyl-N-Octadecyl-3-(trimethoxysilyl)propanaminium chloride]",BOILED IN WATER % EXTRACTION,"130° C./30 minutes, Table XII",27%
same,% BPB EXTRACTION CHANGE,"COTTON, boiled vs not boiled, Table IV",−1%
same,EXTRACTION CHANGE,"COTTON, boiled vs not boiled, Table VI",0%
same,% Extraction @ 595 nm,"NYLON, boiled 30 minutes, Table VI",11%
same,% BPB EXTRACTION @ 595 nm,"NYLON, boiled, Table IX",19%
same,% BPB EXTRACTION @ 595 nm,"NYLON, not boiled, Table IX",85%
same,Boiling Durability % BPB EXTRACTION @ 595 nm,"NYLON, not boiled, Table XVII",80%
same,Strike Rate - % BPB Extraction,"Nylon, 0.25 grams of fabric",8.01%
same,Strike Rate - % BPB Extraction,"Nylon, treatment at pH = 11",45.1%
same,Strike Rate - % BPB Extraction,"PET Staple, treatment at pH = 11",75.82%
same,Boiling Durability - % BPB Extraction,"PET, Boil 30 min., Table XIV",17.9%
same,Strike Rate - % BPB Extraction,"PET, treatment at pH = 11",62.57%
same,% BPB EXTRACTION @ 595 nm,"PET, boiled 30 minutes, Table XV",36%
same,% EXTRACTION CHANGE,"PET, boiled vs not boiled, Table XVII",−64%
same,% BPB EXTRACTION @ 595 nm,"PET, not boiled, Table III",94%
same,Strike Rate - % BPB Extraction,"Rayon, 0.25 grams of fabric",6.94%
